In PubChem BioAssay AID330 (DTP/NCI, 2004):
“And” between values parts separate entries of the source, which are not always exact repeats. Identical values can stand only once. Toxic doses and inconclusive results are not listed.

Test system: P388 leukemia ip, CD2F1 mice, survival T/C
Assay: NCI In Vivo Anticancer Drug Screen. Data for tumor model P388 Leukemia (intraperitoneal) in CD2F1 (CDF1) mice
Conditions: endpoint: median survival time, higher = longer survival
How it was run: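 Mice carrying the transplanted tumor received test compound or vehicle. Survival was recorded in each group, and the value is the treated-group measurement divided by that of the vehicle-treated control group.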

[1] = dose: 50.0 mg/kg/injection, schedule: Q01DX005 (ip), vehicle: saline with Tween-80
[2] = dose: 100.0 mg/kg/injection, schedule: Q01DX005 (ip), vehicle: saline with Tween-80
[3] = dose: 60.0 mg/kg/injection, schedule: Q01DX005 (ip), vehicle: Klucel (hydroxypropylcellulose) (HPC)
[4] = dose: 120.0 mg/kg/injection, schedule: Q01DX005 (ip), vehicle: Klucel (hydroxypropylcellulose) (HPC)
[5] = dose: 240.0 mg/kg/injection, schedule: Q01DX005 (ip), vehicle: Klucel (hydroxypropylcellulose) (HPC)
[6] = dose: 25.0 mg/kg/injection, schedule: Q01DX005 (ip), vehicle: saline with Tween-80
[7] = dose: 200.0 mg/kg/injection, schedule: Q01DX005 (ip), vehicle: saline with Tween-80
[8] = dose: 12.5 mg/kg/injection, schedule: Q01DX009 (ip), vehicle: saline with Tween-80
[9] = dose: 60.0 mg/kg/injection, schedule: Q01DX005 (ip), vehicle: saline with Tween-80
[10] = dose: 120.0 mg/kg/injection, schedule: Q01DX005 (ip), vehicle: saline with Tween-80
[11] = dose: 240.0 mg/kg/injection, schedule: Q01DX005 (ip), vehicle: saline with Tween-80
[12] = dose: 50.0 mg/kg/injection, schedule: Q01DX005 (ip), vehicle: Klucel (hydroxypropylcellulose) (HPC)
[13] = dose: 100.0 mg/kg/injection, schedule: Q01DX005 (ip), vehicle: Klucel (hydroxypropylcellulose) (HPC)
[14] = dose: 200.0 mg/kg/injection, schedule: Q01DX005 (ip), vehicle: Klucel (hydroxypropylcellulose) (HPC)
[15] = dose: 50.0 mg/kg/injection, schedule: Q01DX009 (ip), vehicle: saline with Tween-80
[16] = dose: 100.0 mg/kg/injection, schedule: Q01DX009 (ip), vehicle: saline with Tween-80

## CCOC(=O)CCc1[nH]c(=S)ncc1C(=O)OCC
dose: 7.5 mg/kg/injection, schedule: Q01DX009 (ip), vehicle: saline with Tween-80
  T/C: 96 % of control
dose: 15.0 mg/kg/injection, schedule: Q01DX009 (ip), vehicle: saline with Tween-80
  T/C: 101 % of control
dose: 30.0 mg/kg/injection, schedule: Q01DX009 (ip), vehicle: saline with Tween-80
  T/C: 104 % of control

## CN(Cc1cccc2ccccc12)Cc1cccc2ccccc12
[1]
  T/C: 86 % of control
[2]
  T/C: 89 % of control

## CCOC(=O)c1cnc2cc3c(cc2c1Nc1cccc(C)c1)OCO3
[3]
  T/C: 95 % of control
[4]
  T/C: 99 % of control
[5]
  T/C: 91 % of control

## CCCNCCNc1ccc(NCCNCCC)c2c1C(=O)c1ccccc1C2=O
dose: 4.0 mg/kg/injection, schedule: Q01DX009 (ip), vehicle: acid diluted with saline
  T/C: 104 % of control
dose: 8.0 mg/kg/injection, schedule: Q01DX009 (ip), vehicle: acid diluted with saline
  T/C: 112 % of control
dose: 12.5 mg/kg/injection, schedule: Q01DX009 (ip), vehicle: distilled water + Tween-80
  T/C: 120 % of control
dose: 16.0 mg/kg/injection, schedule: Q01DX009 (ip), vehicle: acid diluted with saline
  T/C: 120 % of control
dose: 25.0 mg/kg/injection, schedule: Q01DX009 (ip), vehicle: distilled water + Tween-80
  T/C: 118 % of control
dose: 32.0 mg/kg/injection, schedule: Q01DX009 (ip), vehicle: acid diluted with saline
  T/C: 112 % of control
dose: 100.0 mg/kg/injection, schedule: Q01DX009 (ip), vehicle: distilled water + Tween-80
  T/C: 124 % of control

## COC(=O)c1c(C(=O)OC)c2c(C)nn3ccc1n23
[6]
  T/C: 96 % of control
[1]
  T/C: 96 % of control
[2]
  T/C: 98 % of control
[7]
  T/C: 93 % of control

## C=C(NC(C)=O)C(=O)O
dose: 6.25 mg/kg/injection, schedule: Q01DX009 (ip), vehicle: saline with Tween-80
  T/C: 103 % of control
[8]
  T/C: 101 % of control and 86 % of control
dose: 12.5 mg/kg/injection, schedule: Q04DX003 (ip), vehicle: saline with Tween-80
  T/C: 104 % of control
dose: 25.0 mg/kg/injection, schedule: Q01DX009 (ip), vehicle: saline with Tween-80
  T/C: 108 % of control
dose: 25.0 mg/kg/injection, schedule: Q04DX003 (ip), vehicle: saline with Tween-80
  T/C: 103 % of control
dose: 50.0 mg/kg/injection, schedule: Q04DX003 (ip), vehicle: saline with Tween-80
  T/C: 101 % of control
dose: 100.0 mg/kg/injection, schedule: Q01DX001 (ip), vehicle: saline with Tween-80
  T/C: 101 % of control

## CC1=C(O)c2cc3c(cc2C(=O)C1=O)OCO3
[3]
  T/C: 98 % of control
[4]
  T/C: 88 % of control
[5]
  T/C: 92 % of control

## Cc1c2oc3c(C)ccc(C(=O)NC(C(=O)NC(C(=O)N(C)C)C(C)C)C(C)O)c3nc-2c(C(=O)NC(C(=O)NC(C(=O)N(C)C)C(C)C)C(C)O)c(N)c1=O (configuration not stated)
dose: 0.05 mg/kg/injection, schedule: Q01DX009 (ip), vehicle: water
  T/C: 101 % of control
dose: 0.1 mg/kg/injection, schedule: Q01DX009 (ip), vehicle: water
  T/C: 100 % of control
dose: 0.2 mg/kg/injection, schedule: Q01DX009 (ip), vehicle: water
  T/C: 100 % of control
dose: 0.4 mg/kg/injection, schedule: Q01DX009 (ip), vehicle: water
  T/C: 108 % of control
dose: 0.8 mg/kg/injection, schedule: Q01DX009 (ip), vehicle: water
  T/C: 110 % of control
dose: 1.6 mg/kg/injection, schedule: Q01DX009 (ip), vehicle: water
  T/C: 99 % of control and 106 % of control
dose: 3.2 mg/kg/injection, schedule: Q01DX009 (ip), vehicle: water
  T/C: 101 % of control
dose: 6.4 mg/kg/injection, schedule: Q01DX009 (ip), vehicle: water
  T/C: 101 % of control
dose: 12.8 mg/kg/injection, schedule: Q01DX009 (ip), vehicle: water
  T/C: 106 % of control

## Cc1cc(NS(=O)(=O)c2ccc(N=c3c4ccccc4n(Cc4ccccc4)c4ccccc34)cc2)no1
[1]
  T/C: 98 % of control
[2]
  T/C: 97 % of control
[7]
  T/C: 88 % of control

## O=C(Nc1cc(Cl)cc(Cl)c1)OCCCl
[9]
  T/C: 100 % of control
[10]
  T/C: 98 % of control
[11]
  T/C: 91 % of control

## CCCCCN(C)c1ncnc2[nH]ncc12
dose: 25.0 mg/kg/injection, schedule: Q01DX005 (ip), vehicle: saline
  T/C: 94 % of control
dose: 50.0 mg/kg/injection, schedule: Q01DX005 (ip), vehicle: saline
  T/C: 95 % of control
dose: 100.0 mg/kg/injection, schedule: Q01DX005 (ip), vehicle: saline
  T/C: 100 % of control

## O=C(OC1C2COC(O2)C(OC(=O)c2ccccc2)C1OC(=O)c1ccccc1)c1ccccc1 (configuration not stated)
[12]
  T/C: 104 % of control
[13]
  T/C: 101 % of control
[14]
  T/C: 104 % of control

## N=c1oc(-c2ccccc2)cc2ccccc12
dose: 6.25 mg/kg/injection, schedule: Q01DX005 (ip), vehicle: Klucel (hydroxypropylcellulose) (HPC)
  T/C: 104 % of control
dose: 12.5 mg/kg/injection, schedule: Q01DX005 (ip), vehicle: Klucel (hydroxypropylcellulose) (HPC)
  T/C: 100 % of control
dose: 25.0 mg/kg/injection, schedule: Q01DX005 (ip), vehicle: Klucel (hydroxypropylcellulose) (HPC)
  T/C: 104 % of control

## CCCc1c(OC)c(OC)c2c(c1C(C)=O)OCO2
[1]
  T/C: 100 % of control
[2]
  T/C: 100 % of control
[7]
  T/C: 104 % of control

## CCOC(=O)c1ccc(NN=NC)cc1
[8]
  T/C: 108 % of control and 113 % of control
[15]
  T/C: 154 % of control and 173 % of control
[16]
  T/C: 108 % of control and 91 % of control

## CCCOc1cc2c(cc1C(C)c1ccccc1)OCO2 (configuration not stated)
[1]
  T/C: 101 % of control
[2]
  T/C: 95 % of control
[7]
  T/C: 96 % of control

## CCOC(=O)c1ccc(NC(N)=O)cc1
dose: 25.0 mg/kg/injection, schedule: Q01DX009 (ip), vehicle: other
  T/C: 101 % of control
dose: 50.0 mg/kg/injection, schedule: Q01DX009 (ip), vehicle: other
  T/C: 102 % of control
dose: 100.0 mg/kg/injection, schedule: Q01DX009 (ip), vehicle: other
  T/C: 98 % of control
dose: 200.0 mg/kg/injection, schedule: Q01DX009 (ip), vehicle: other
  T/C: 98 % of control
dose: 400.0 mg/kg/injection, schedule: Q01DX009 (ip), vehicle: other
  T/C: 93 % of control

## COc1ccc2c3c(c4ccccc4c2c1)C(=O)OC3=O
[6]
  T/C: 87 % of control
[1]
  T/C: 87 % of control
[2]
  T/C: 109 % of control

## COC(=O)CC1C=CC(OC)[C@@]2(C)C(=O)c3ccccc3C(=O)[C@@H]12 (some centres not stated)
[9]
  T/C: 93 % of control
[10]
  T/C: 106 % of control
[11]
  T/C: 101 % of control

## C/C(=N\N=C/N(C)S(C)(=O)=O)c1ccccc1
[12]
  T/C: 104 % of control
[13]
  T/C: 104 % of control
[14]
  T/C: 99 % of control

## CC(O)c1cc2c(o1)C(=O)c1cccc(O)c1C2=O (configuration not stated)
dose: 9.38 mg/kg/injection, schedule: Q01DX005 (ip), vehicle: Klucel (hydroxypropylcellulose) (HPC)
  T/C: 95 % of control
dose: 18.75 mg/kg/injection, schedule: Q01DX005 (ip), vehicle: Klucel (hydroxypropylcellulose) (HPC)
  T/C: 95 % of control
dose: 37.5 mg/kg/injection, schedule: Q01DX005 (ip), vehicle: Klucel (hydroxypropylcellulose) (HPC)
  T/C: 95 % of control

## COc1ccc2c(c1)CCC1C2=NN=C2CCCC21 (configuration not stated)
dose: 100.0 mg/kg/injection, schedule: Q01DX001 (ip), vehicle: Klucel (hydroxypropylcellulose) (HPC)
  T/C: 97 % of control
dose: 200.0 mg/kg/injection, schedule: Q01DX001 (ip), vehicle: Klucel (hydroxypropylcellulose) (HPC)
  T/C: 88 % of control
dose: 400.0 mg/kg/injection, schedule: Q01DX001 (ip), vehicle: Klucel (hydroxypropylcellulose) (HPC)
  T/C: 92 % of control

## S=C(c1c(Cl)cccc1Cl)N1CN(Cc2ccc(Cl)cc2)CN(Cc2ccc(Cl)cc2)C1
[15]
  T/C: 99 % of control
[16]
  T/C: 96 % of control
dose: 200.0 mg/kg/injection, schedule: Q01DX009 (ip), vehicle: saline with Tween-80
  T/C: 108 % of control

## CC(C)Cn1c(Cl)c(C(=O)O)c2ccccc21
dose: 100.0 mg/kg/injection, schedule: Q04DX002 (ip), vehicle: Klucel (hydroxypropylcellulose) (HPC)
  T/C: 92 % of control
dose: 200.0 mg/kg/injection, schedule: Q04DX002 (ip), vehicle: Klucel (hydroxypropylcellulose) (HPC)
  T/C: 88 % of control
